24 compounds from ChEMBL document CHEMBL1201862, “PubChem BioAssay data set” (2004) can be followed below.

Each structure is given as a SMILES string. Activity calls are given as the source filed them.

In general, AC50 refers to the concentration at which the activity in the assay is half-maximal. One may read the EC50 as the concentration giving half of the maximal effect.

Among the targets are Cytochrome P450 2D6 (Homo sapiens, UniProt P10635); Cytochrome P450 3A4 (Homo sapiens, UniProt P08684); Cytochrome P450 2C9 (Homo sapiens, UniProt P11712).
A further data set addresses T1, Cytochrome P450 1A2 (Homo sapiens, UniProt P05177).
T1 sequence (P05177 whole entry): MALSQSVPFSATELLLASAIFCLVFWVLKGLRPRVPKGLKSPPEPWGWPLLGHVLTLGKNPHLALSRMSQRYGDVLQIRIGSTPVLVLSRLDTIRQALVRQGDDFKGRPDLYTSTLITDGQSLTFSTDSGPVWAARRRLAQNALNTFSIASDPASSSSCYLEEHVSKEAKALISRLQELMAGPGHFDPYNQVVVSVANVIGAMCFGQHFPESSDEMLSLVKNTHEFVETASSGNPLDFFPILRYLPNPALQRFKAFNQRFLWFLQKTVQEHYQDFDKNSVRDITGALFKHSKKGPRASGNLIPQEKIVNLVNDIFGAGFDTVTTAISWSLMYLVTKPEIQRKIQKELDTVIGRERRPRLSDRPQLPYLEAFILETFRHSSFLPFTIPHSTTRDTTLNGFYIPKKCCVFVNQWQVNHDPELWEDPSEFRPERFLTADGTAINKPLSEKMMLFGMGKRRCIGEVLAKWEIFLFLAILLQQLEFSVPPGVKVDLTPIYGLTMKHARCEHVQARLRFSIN

The target of a further data set is Cytochrome P450 2C19 (Homo sapiens, UniProt P33261). As to the kind of experiment: Cytochrome panel assay with activity outcomes. Panel member name: p450-cyp2c19 Compounds with AC50 equal or less than 10 uM are considered active. In kind it is functional.
The nature of data set [1]: Luminescence Cell-Based Dose Confirmation HTS to Identify Inhibitors of Platelet Dense Granule Release. [Related pubchem assays: 1663 (Primary HTS), 1678 (Summary of Project)]. The data set is classed as functional.
The target of data set [2] is Luciferin 4-monooxygenase (Photinus pyralis, UniProt P08659). As to the kind of experiment: inhibition of purified Photinus pyralis luciferase – biochemical, luminescence, dose response (AID 1891).
Data set [3] is described as follows: fluconazole-exposed Candida albicans growth modulators – fluorescence, retest, confirmation (AID 2467). In kind it is functional, cell-based.
Data set [4] is described as follows: NIH-3T3 fibroblast cytotoxicity, dose response, cytotoxicity control, cell-based, fluorescence, Alamar Blue, secondary assay (AID 2327).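 Further: NIH-3T3 mouse fibroblasts cultured with fluconazole at 8 µg/mL.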 The data set is classed as functional.
Data set [5] is described as follows: NIH3T3 cell viability loss – ATP luminescence, mouse fibroblasts, counter-screen, dose response (AID 2010).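 Further: cells exposed to compound for about 90 hours before reading.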 In kind it is functional, cell-based.
Data set [6] in a line: Trypanosoma cruzi growth suppression in host cells – NIH3T3 host cells, beta-gal luminescence, confirmation (AID 2044).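 Further: intracellular parasites grown in NIH/3T3 mouse fibroblasts as host cells; luminescent beta-galactosidase reporter signal from transgenic T. cruzi replicating inside host cells; inhibitors lower the luminescence signal.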 The data set is classed as functional, cell-based.

Sequence of Cytochrome P450 2C19 (P33261 whole entry): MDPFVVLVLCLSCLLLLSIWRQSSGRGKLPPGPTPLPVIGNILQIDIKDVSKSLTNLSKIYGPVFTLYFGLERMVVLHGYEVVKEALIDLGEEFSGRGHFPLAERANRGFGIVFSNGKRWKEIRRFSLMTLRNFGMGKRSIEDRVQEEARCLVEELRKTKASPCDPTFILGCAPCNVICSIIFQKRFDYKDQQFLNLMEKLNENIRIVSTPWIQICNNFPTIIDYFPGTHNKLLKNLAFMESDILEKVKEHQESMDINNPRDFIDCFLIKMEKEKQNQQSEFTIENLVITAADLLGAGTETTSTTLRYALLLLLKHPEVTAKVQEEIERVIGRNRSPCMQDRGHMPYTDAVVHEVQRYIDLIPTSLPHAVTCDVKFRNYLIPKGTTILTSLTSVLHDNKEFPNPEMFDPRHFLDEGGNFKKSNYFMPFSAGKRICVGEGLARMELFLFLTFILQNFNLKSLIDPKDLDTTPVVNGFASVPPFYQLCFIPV
Sequence of Luciferin 4-monooxygenase (P08659 whole entry): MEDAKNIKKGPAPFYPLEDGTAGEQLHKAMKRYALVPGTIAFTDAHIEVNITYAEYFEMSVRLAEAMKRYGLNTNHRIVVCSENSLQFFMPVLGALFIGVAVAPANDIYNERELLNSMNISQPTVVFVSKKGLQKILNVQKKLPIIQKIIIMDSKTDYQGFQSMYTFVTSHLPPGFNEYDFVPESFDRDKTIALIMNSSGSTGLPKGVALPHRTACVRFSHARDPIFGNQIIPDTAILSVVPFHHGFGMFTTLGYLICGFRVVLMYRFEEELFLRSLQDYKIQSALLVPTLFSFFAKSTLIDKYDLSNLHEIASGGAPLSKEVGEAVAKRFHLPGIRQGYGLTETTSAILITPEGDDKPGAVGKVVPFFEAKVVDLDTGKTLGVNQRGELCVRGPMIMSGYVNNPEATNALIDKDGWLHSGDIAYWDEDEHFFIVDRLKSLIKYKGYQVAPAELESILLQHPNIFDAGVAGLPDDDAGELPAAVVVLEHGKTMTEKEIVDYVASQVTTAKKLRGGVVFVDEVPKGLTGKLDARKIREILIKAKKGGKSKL
Sequence of Cytochrome P450 2C9 (P11712 whole entry): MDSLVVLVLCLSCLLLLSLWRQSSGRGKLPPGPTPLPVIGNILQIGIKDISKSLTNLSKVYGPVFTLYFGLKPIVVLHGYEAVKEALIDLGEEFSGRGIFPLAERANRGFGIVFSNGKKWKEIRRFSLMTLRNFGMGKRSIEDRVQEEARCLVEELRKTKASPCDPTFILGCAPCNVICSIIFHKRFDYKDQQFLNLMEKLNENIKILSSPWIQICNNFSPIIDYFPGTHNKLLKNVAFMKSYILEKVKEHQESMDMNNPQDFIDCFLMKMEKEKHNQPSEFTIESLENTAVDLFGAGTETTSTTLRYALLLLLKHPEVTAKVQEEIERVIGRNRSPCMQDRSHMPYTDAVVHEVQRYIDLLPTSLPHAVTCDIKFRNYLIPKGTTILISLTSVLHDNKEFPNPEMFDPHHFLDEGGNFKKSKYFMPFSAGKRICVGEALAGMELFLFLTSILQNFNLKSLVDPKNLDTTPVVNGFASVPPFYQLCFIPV
Sequence of Cytochrome P450 2D6 (P10635 whole entry): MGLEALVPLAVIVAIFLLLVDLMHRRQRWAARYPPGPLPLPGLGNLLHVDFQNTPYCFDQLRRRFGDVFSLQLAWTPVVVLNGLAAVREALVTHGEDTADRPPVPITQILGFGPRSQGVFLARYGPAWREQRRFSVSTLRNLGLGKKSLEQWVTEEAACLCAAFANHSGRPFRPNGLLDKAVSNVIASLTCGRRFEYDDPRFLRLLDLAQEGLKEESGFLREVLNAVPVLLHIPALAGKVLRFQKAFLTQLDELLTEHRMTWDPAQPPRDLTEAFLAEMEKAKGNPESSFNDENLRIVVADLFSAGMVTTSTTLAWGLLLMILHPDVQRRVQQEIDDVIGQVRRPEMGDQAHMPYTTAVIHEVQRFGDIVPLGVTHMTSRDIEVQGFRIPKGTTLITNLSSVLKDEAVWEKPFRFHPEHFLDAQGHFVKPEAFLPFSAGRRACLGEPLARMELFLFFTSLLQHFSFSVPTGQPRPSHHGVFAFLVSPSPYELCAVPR
Sequence of Cytochrome P450 3A4 (P08684 whole entry): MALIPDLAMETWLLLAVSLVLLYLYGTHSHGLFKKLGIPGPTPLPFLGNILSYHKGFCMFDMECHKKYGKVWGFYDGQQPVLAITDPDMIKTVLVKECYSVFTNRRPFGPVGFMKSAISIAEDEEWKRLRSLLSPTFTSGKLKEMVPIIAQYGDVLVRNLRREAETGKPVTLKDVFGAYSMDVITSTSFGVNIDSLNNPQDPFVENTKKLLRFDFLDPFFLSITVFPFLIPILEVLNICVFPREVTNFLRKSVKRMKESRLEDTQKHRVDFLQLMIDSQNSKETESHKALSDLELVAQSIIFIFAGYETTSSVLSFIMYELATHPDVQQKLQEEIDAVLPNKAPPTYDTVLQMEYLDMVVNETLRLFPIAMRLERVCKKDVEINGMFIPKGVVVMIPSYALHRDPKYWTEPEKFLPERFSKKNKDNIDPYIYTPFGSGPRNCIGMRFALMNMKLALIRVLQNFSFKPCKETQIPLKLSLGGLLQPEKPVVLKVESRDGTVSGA

`CS(=O)(=O)N1CCC2(CCCN(c3ccccn3)C2)CC1`: the AC50 at Cytochrome P450 2D6 is 25.1 µM (inconclusive); on Cytochrome P450 1A2, 25.1 µM (inconclusive); on Cytochrome P450 2C19 (read-out: AC50), 15.8 µM (inconclusive); at Cytochrome P450 3A4 it was 15.8 µM (inconclusive).

Consider `C/C=C(\C)C(=O)O[C@@H]1C(C)=C2[C@H]([C@@H]1OC(=O)CCCCCCC)[C@@](C)(OC(C)=O)C[C@@H](OC(=O)CCC)[C@@]1(O)[C@H]2OC(=O)[C@]1(C)O`, for which the half-maximal activity concentration (AC50) on Cytochrome P450 2D6 and at Cytochrome P450 1A2 was 39.8 µM (inconclusive) in each case.

Consider `CN=C(S)Nc1ccc(C(N)=O)cc1`, for which the 50% effective concentration (EC50) in data set [1] was > 112 µM (not active).

For the compound `CNC(=S)Nc1ccc(C(N)=O)cc1`, in [2], the EC50 is recorded as > 112 µM (not active).

On to `CCN(CCn1cccn1)Cc1c[nH]nc1-c1cccc2ccccc12`, for which the EC50 in data set [2] and in data set [1] was > 112 µM (not active) throughout.

As for `COc1ccc(OC)c(CCNC(=O)CCc2nnc3ccc(N4CCCCC4)nn23)c1`, the EC50 in data set [2] is > 112 µM (not active); in data set [1], 52.5 µM (active).

On to `COc1ccc(NC(=O)Nc2nc3c(s2)CCCC3)cc1`, for which the results for the concentration giving a half-maximal response (EC50) in data set [3] and in data set [4] were 8.48 µM (active) and > 150 µM (inactive), respectively.

As for `O=C(c1ccccc1)[C@H]1[C@H](c2ccccc2[N+](=O)[O-])N1C1CCCCC1` (stereo partly specified), the results for the AC50 on Cytochrome P450 1A2 and on Cytochrome P450 3A4 were 0.631 µM (inconclusive) and 3.98 µM (inconclusive), respectively.

For `Cc1ccc(-n2c(C)cc(/C(O)=C(/C([S-])=Nc3ccc(F)c(Cl)c3)[n+]3ccccc3)c2C)cc1`, the EC50 in data set [3] is > 38 µM (not active); in [4] it was > 160 µM (inactive).

Turning to `COc1cc(OC)cc(C(=O)NNC(=O)c2cc3ccccc3cc2O)c1`, the EC50 in data set [3] is > 38 µM (not active); in data set [4] it was > 160 µM (inactive).

For `CCOc1ccc(C(=O)Nc2ccc(Cc3ccncc3)cc2)cc1Br`, the concentration giving a half-maximal response (EC50) was > 60 µM (not active) in data set [5], > 38 µM (not active) in data set [3], > 150 µM (inactive) in data set [4] and 1.68 µM (active) in data set [6].

As for `Cc1cccc(NC(=O)CC2SC(=O)N(c3ccccc3)C2=O)c1` (stereo unspecified), the EC50 in [2] and in [1] was > 112 µM (not active) each time.

As for `C[S+]([O-])c1ccccc1-c1nc(-c2cc(C(F)(F)F)cc(C(F)(F)F)c2)no1` (stereo unspecified), the AC50 on Cytochrome P450 1A2 was 2.24 µM (inconclusive); on Cytochrome P450 2C19 (read-out: AC50) it was 8.91 µM (inconclusive); on Cytochrome P450 2C9, 17.8 µM (inconclusive).

Take `CN(C)Cc1ccccc1-c1cncnc1NCc1cccnc1`: the AC50 on Cytochrome P450 1A2 was 12.6 µM (inconclusive).

`Cc1c(-c2c(C#N)c(N)nc3c2CCCCCC3)cnn1C`: the concentration at half-maximal activity (AC50) at Cytochrome P450 1A2 is 35.5 µM (inconclusive); on Cytochrome P450 2C9, 22.4 µM (inconclusive).

Regarding `N=C(Cc1ccc(Cl)cc1Cl)NOC(=O)c1ccccc1`, the EC50 was > 38 µM (not active) in [3] and > 160 µM (inactive) in data set [4].

With `COCCNC(=O)C(c1ccc(C)o1)N(CCOC)C(=O)Cn1nnc2ccccc21` (stereo unspecified), the 50% effective concentration (EC50) in [3] is > 38 µM (not active); in [4] it was > 150 µM (inactive).

For `Cc1cccc(C)c1NC(=O)CN(C)C(=O)Cn1c(=O)cnc2ccccc21`, the EC50 in data set [2] and in [1] was > 112 µM (not active) each time.

Regarding `CC(=O)c1cccc(NC(=O)Oc2ccccc2)c1`, the AC50 at Cytochrome P450 1A2 is 28.2 µM (inconclusive); at Cytochrome P450 2C19, “inconclusive”.

Turning to `CC1=C[N+](=O)c2ccccc2[N+]1=O`, the half-maximal activity concentration (AC50) on Cytochrome P450 1A2 was 6.31 µM (inconclusive).

Consider `CN1CCCC[C@@H]1CCN1CCCCC1`, for which the AC50 at Cytochrome P450 1A2 was 0.01 µM (inconclusive).

In the case of `CCCCN(c1ccccc1)c1ncnc2c1cnn2C`, on Cytochrome P450 1A2, the half-maximal activity concentration (AC50) is 0.631 µM (inconclusive).

`Cc1nc2ccccc2cc1C[N+]12CN3CN(CN(C3)C1)C2`: at Cytochrome P450 1A2, the AC50 was 0.631 µM (inconclusive).

`Cn1cc(C(=O)N/N=C/C(Br)=C\c2ccccc2)ccc1=O`: the AC50 at Cytochrome P450 1A2 is 3.55 µM (inconclusive); on Cytochrome P450 2C19 (read-out: AC50), 28.2 µM (inconclusive).
